Article PMC9841524, “Structure-Based Rational Design of Small α-Helical Peptides with Broad-Spectrum Activity against Multidrug-Resistant Pathogens” (Journal of Medicinal Chemistry, 2022)
Where two headings read alike, the source gives them in different places. Where no end group is shown, it is not given here.

Legend:
S. aureus (ATCC 29213) = test: MIC, standard microtiter dilution (CLSI); assay type: cell-based; conditions: broth microdilution (CLSI), CAMHB, 37 °C, 24 h
Protocol: (§1) Description of the characteristics and growth conditions of various bacterial strains used in the study are provided in the Supporting Information (Table S3). Antibacterial susceptibility testing was carried out using a standard microtiter dilution method recommended by the clinical and laboratory standard institute (CLSI) and measured as a minimum inhibitory concentration (MIC), the lowest peptide concentration that inhibited bacterial growth. Briefly, the overnight grown cultures in the recommended broth for each bacterial strain were diluted in cation-adjusted Mueller Hinton Broth (CAMHB) to give an inoculum of 10^6 colony-forming units (CFU)/mL. A 2-fold serially diluted test peptide solution (100 μL) was added to the microtiter plates. After adding bacterial suspension (100 μL), the plates were incubated at 37 °C for 24 h, and the MICs were determined. The same protocol was used to determine the MICs in the presence of salts and serum except using the media supplemented with various cationic salts (150 mM NaCl, 4.5 mM KCl, 6 mM NH4Cl, 1 mM MgCl2, and 2 mM CaCl2) or 25% FBS. The data was acquired from three independent assays performed in triplicate.
(§2) The bacterial strains employed in this study were obtained from the American Type Culture Collection (ATCC). Each strain was propagated as recommended by the ATCC, and each strain was stored as a frozen glycerol stock at -80°C. A bacterial colony was grown on the appropriate agar as indicated in Table S1 and was used to inoculate the appropriate broth. The culture was incubated at the appropriate conditions, as mentioned in Table S1. Following the incubation, the culture was diluted to an optical density 625 nm (OD625) of 0.1 in cation adjusted Mueller Hinton Broth (CAMHB), which is equivalent to 1 × 10^8 CFU/mL. The culture was further diluted to 1 × 10^6 CFU/mL, which was used to conduct the MIC determination assay. For the S. pneumoniae strains, CAMHB + 2.5% lysed horse blood was required for the assay. The strains with their […]
(§3) Table S3. Description of the characteristics and growth conditions of various bacterial strains

E. coli (ATCC 25922) = conditions: broth microdilution (CLSI), CAMHB, 37 °C, 24 h
Protocol: as §1, §2, §3

MRSA (ATCC BAA-1556) = conditions: broth microdilution (CLSI), CAMHB, 37 °C, 24 h
Protocol: as §1, §2, §3

[1] = system: P. aeruginosa (ATCC 27883); test: MIC, standard microtiter dilution (CLSI); assay type: cell-based, Pseudomonas aeruginosa; conditions: broth microdilution (CLSI), CAMHB, 37 °C, 24 h
Protocol: as §1, §2, §3

[2] = system: K. pneumoniae (ATCCBAA-1705); test: MIC, standard microtiter dilution (CLSI); assay type: cell-based, Klebsiella pneumoniae; conditions: broth microdilution (CLSI), CAMHB, 37 °C, 24 h
Protocol: as §1, §2, §3

[3] = system: human red blood cells (hRBCs); test: Hemolytic assay; assay type: cell-based; conditions: 2 h, 37 °C
Protocol: The hemolytic activity of all peptides (1a–8d) was determined using hRBC. The assay was conducted by adding 75 μL of 2-fold serially diluted peptides to 75 μL of hRBC suspension (4% in PBS). The plates were incubated for 2 h at 37 °C without agitation. In order to determine the hemolysis at each tested concentration of peptides, the plate was centrifuged, and 100 μL of the supernatant was transferred to another 96-well plate to determine hemoglobin release spectrophotometrically at 567 nm. Percent hemolysis was calculated by the following formula [drawing 1] where A represents the absorbance of the peptide sample at 567 nm and A0 and At represent zero percent and 100% hemolysis determined in phosphate buffer saline and 1% Triton X-100, respectively.

[4] = 10^6 CFU/mL, highest MIC of three independent experiments in triplicate
[5] = hRBC suspension 4% in PBS, hemoglobin release at 567 nm, 1% Triton X-100 = 100%
[6] = value in parentheses (μM), hRBC 4% in PBS, 567 nm

Substance	MIC, S. aureus (ATCC 29213) (S. aureus (ATCC 29213); [4])	MIC, S. aureus (ATCC 29213) (S. aureus (ATCC 29213); value in parentheses (μM))	MIC, E. coli (ATCC 25922) (E. coli (ATCC 25922); [4])	MIC, E. coli (ATCC 25922) (E. coli (ATCC 25922); value in parentheses (μM))	MIC, MRSA (ATCC BAA-1556) (MRSA (ATCC BAA-1556); [4])	MIC, MRSA (ATCC BAA-1556) (MRSA (ATCC BAA-1556); value in parentheses (μM))	MIC, P. aeruginosa (ATCC 27883) [1, 4]	MIC, P. aeruginosa (ATCC 27883) ([1]; value in parentheses (μM))	MIC, K. pneumoniae (ATCCBAA-1705) [2, 4]	MIC, K. pneumoniae (ATCCBAA-1705) ([2]; value in parentheses (μM))	HC50 (concentration at which 50% hemolysis was observed) [3, 5]	HC50 (concentration at which 50% hemolysis was observed) [3, 6]
WRRWARRW-NH2 [2d]	> 100 µg/mL	> 78.65 µM	> 100 µg/mL	> 78.65 µM	> 100 µg/mL	> 78.65 µM	> 100 µg/mL	> 78.65 µM	> 100 µg/mL	> 78.65 µM	> 500 µg/mL	> 393.23 µM
H-RAWRRWWARA-NH2 [4g]	> 100 µg/mL	> 70.74 µM	> 100 µg/mL	> 70.74 µM	> 100 µg/mL	> 70.74 µM	> 100 µg/mL	> 70.74 µM	> 100 µg/mL	> 70.74 µM	> 500 µg/mL	> 353.69 µM
RWWRRAWRAA-NH2 [4c]	> 100 µg/mL	> 70.74 µM	> 100 µg/mL	> 70.74 µM	> 100 µg/mL	> 70.74 µM	> 100 µg/mL	> 70.74 µM	> 100 µg/mL	> 70.74 µM	> 500 µg/mL	> 353.69 µM
RAWRRWWRA-NH2 [3b]	> 100 µg/mL	> 74.48 µM	> 100 µg/mL	> 74.48 µM	> 100 µg/mL	> 74.48 µM	> 100 µg/mL	> 74.48 µM	> 100 µg/mL	> 74.48 µM	> 500 µg/mL	> 372.42 µM
H-AAWRRWWRRA-NH2 [4h]	> 100 µg/mL	> 70.74 µM	> 100 µg/mL	> 70.74 µM	> 100 µg/mL	> 70.74 µM	> 100 µg/mL	> 70.74 µM	> 100 µg/mL	> 70.74 µM	> 500 µg/mL	> 353.69 µM
RAARRWARWWR-NH2 [5a]	100 µg/mL	63.70 µM	> 100 µg/mL	> 63.70 µM	100 µg/mL	63.70 µM	> 100 µg/mL	> 63.70 µM	> 100 µg/mL	> 63.70 µM	> 500 µg/mL	> 318.50 µM
H-RWWRRWR-NH2 [1e]	100 µg/mL	83.30 µM	> 100 µg/mL	> 83.30 µM	100 µg/mL	83.30 µM	> 100 µg/mL	> 83.30 µM	> 100 µg/mL	> 83.30 µM	> 500 µg/mL	> 416.52 µM
RWARRAWRAW-NH2 [4e]	> 100 µg/mL	> 70.74 µM	> 100 µg/mL	> 70.74 µM	> 100 µg/mL	> 70.74 µM	> 100 µg/mL	> 70.74 µM	> 100 µg/mL	> 70.74 µM	> 500 µg/mL	> 353.69 µM
AWWRRAWRR-NH2 [3f]	> 100 µg/mL	> 74.48 µM	> 100 µg/mL	> 74.48 µM	> 100 µg/mL	> 74.48 µM	> 100 µg/mL	> 74.48 µM	> 100 µg/mL	> 74.48 µM	> 500 µg/mL	> 372.42 µM
Ac-RWIRRWIRWWR-NH2 [5e]	50 µg/mL	27.61 µM	100 µg/mL	55.21 µM	50 µg/mL	27.61 µM	50 µg/mL	27.61 µM	100 µg/mL	55.21 µM	60 µg/mL	33.13 µM
